Biological target: T1, human mAChR M4 (Homo sapiens, UniProt P08173)
T1 construct: expressed in transfected cells
T1 sequence (P08173 1-479): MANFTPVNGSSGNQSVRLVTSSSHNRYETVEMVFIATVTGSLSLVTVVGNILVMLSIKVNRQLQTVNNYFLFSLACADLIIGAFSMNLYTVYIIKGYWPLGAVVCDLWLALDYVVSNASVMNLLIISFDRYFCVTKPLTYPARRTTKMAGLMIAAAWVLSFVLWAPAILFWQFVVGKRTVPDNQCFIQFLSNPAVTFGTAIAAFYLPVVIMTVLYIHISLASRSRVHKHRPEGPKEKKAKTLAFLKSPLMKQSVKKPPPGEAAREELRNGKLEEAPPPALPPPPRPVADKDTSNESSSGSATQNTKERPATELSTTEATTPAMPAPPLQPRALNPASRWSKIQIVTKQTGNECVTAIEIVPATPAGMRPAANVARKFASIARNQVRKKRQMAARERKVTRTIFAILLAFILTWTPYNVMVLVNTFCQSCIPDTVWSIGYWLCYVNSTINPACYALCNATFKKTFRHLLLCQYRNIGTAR
Assay: mAChR M4 cell-based functional assay (calcium mobilization, CHO-K1 hM4-Gqi5 cells)
Conditions: for Emax at 30 µM: CHO-K1, % ACh maximum at 30 μM, human M4; for EC50: positive allosteric modulator activity, increase in the EC20 acetylcholine response, CHO-K1 hM4-Gqi5 cells, read-out: Human M4 EC50
How it was run: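 Fluorescent calcium read-out (Fluo-4 AM, FDSS, 1 Hz) in hM4-Gqi5 CHO-K1 cells, 11-point 1:3 compound series. Agonism scored on compound addition, PAM activity as increase of the 144 s EC20 acetylcholine response, antagonism as decrease of the 230 s EC80 response; four-parameter logistic fits give EC50 and Emax.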

| Emax at 30 µM [%] | EC50 [nM] | Compound | Emax (CHO-K1) [%] |
| --- | --- | --- | --- |
| 80 | 516 | Cc1cc(C#N)nnc1N1CCc2ncc(N3CCCn4nc(C(C)(C)C)cc43)cc2C1 [Example 418, 6-(3-(2-(tert-butyl)-6,7-dihydropyrazolo[1,5-a]pyrimidin-4(5H)-yl)-7,8-dihydro-1,6-naphthyridin-6(5H)-yl)-5-methylpyridazine-3-carbonitrile] | – |
| 87 | 284 | Cc1cc(C#N)nnc1N1CCc2ncc(N3CCCn4nc(C5CC5)cc43)cc2C1 [Example 419, 6-(3-(2-cyclopropyl-6,7-dihydropyrazolo[1,5-a]pyrimidin-4(5H)-yl)-7,8-dihydro-1,6-naphthyridin-6(5H)-yl)-5-methylpyridazine-3-carbonitrile] | – |
| 43 | ≥ 10000 | Cc1cc(C#N)cnc1N1CCc2ncc(N3CCN(C)CC3=O)cc2C1 [Example 420, 5-methyl-6-(3-(4-methyl-2-oxopiperazin-1-yl)-7,8-dihydro-1,6-naphthyridin-6(5H)-yl)nicotinonitrile] | – |
| 94 | 523 | Cc1cc(C#N)nnc1N1CCc2ncc(CC(F)(F)F)cc2C1 [Example 422, 5-methyl-6-(3-(2,2,2-trifluoroethyl)-7,8-dihydro-1,6-naphthyridin-6(5H)-yl)pyridazine-3-carbonitrile] | – |
| 76 | 229 | Cc1cc(C#N)cnc1N1CCc2ncc(CC(F)(F)F)cc2C1 [Example 423, 5-methyl-6-(3-(2,2,2-trifluoroethyl)-7,8-dihydro-1,6-naphthyridin-6(5H)-yl)nicotinonitrile] | – |
| 86 | 1430 | Cc1cc(C#N)nnc1N1CCc2ncc(C(C)(O)C(F)(F)F)cc2C1 (centres unmarked) [Example 424, 5-methyl-6-(3-(1,1,1-trifluoro-2-hydroxypropan-2-yl)-7,8-dihydro-1,6-naphthyridin-6(5H)-yl)pyridazine-3-carbonitrile] | – |
| 61 | 621 | Cc1c(C#N)nnc(N2CCc3ncc(C(C)(O)C(F)(F)F)cc3C2)c1C (centres unmarked) [Example 425, 4,5-dimethyl-6-(3-(1,1,1-trifluoro-2-hydroxypropan-2-yl)-7,8-dihydro-1,6-naphthyridin-6(5H)-yl)pyridazine-3-carbonitrile] | – |
| 95 | 577 | Cc1cc(C#N)cnc1N1CCc2ncc(C(C)(O)C(F)(F)F)cc2C1 (centres unmarked) [Example 426, 5-methyl-6-(3-(1,1,1-trifluoro-2-hydroxypropan-2-yl)-7,8-dihydro-1,6-naphthyridin-6(5H)-yl)nicotinonitrile] | – |
| 63 | 2670 | Cc1cc(C#N)cnc1N1CCc2ncc(OCCOc3ccccc3)cc2C1 [Example 427, 5-methyl-6-(3-(2-phenoxyethoxy)-7,8-dihydro-1,6-naphthyridin-6(5H)-yl)nicotinonitrile] | – |
| 59 | 2350 | Cc1cc(C#N)cnc1N1CCc2ncc(OCCOc3ccc(F)cc3)cc2C1 [Example 428, 6-(3-(2-(4-fluorophenoxy)ethoxy)-7,8-dihydro-1,6-naphthyridin-6(5H)-yl)-5-methylnicotinonitrile] | – |
| 57 | 2520 | Cc1cc(C#N)cnc1N1CCc2ncc(OCCOc3ccccc3F)cc2C1 [Example 429, 6-(3-(2-(2-fluorophenoxy)ethoxy)-7,8-dihydro-1,6-naphthyridin-6(5H)-yl)-5-methylnicotinonitrile] | – |
| 42 | 6530 | Cc1ccccc1OCCOc1cnc2c(c1)CN(c1ncc(C#N)cc1C)CC2 [Example 430, 5-methyl-6-(3-(2-(o-tolyloxy)ethoxy)-7,8-dihydro-1,6-naphthyridin-6(5H)-yl)nicotinonitrile] | – |

| Compound | Emax at 30 µM [%] | EC50 [nM] | Emax (CHO-K1) [%] |
| --- | --- | --- | --- |
| [2H]C([2H])([2H])c1cnc2c(c1)CN(c1nnc(C#N)cc1C)CC2 [Example 421, 5-methyl-6-(3-(methyl-d3)-7,8-dihydro-1,6-naphthyridin-6(5H)-yl)pyridazine-3-carbonitrile] | – | 336 | 89 |
